Source: US20230276794A1, “MESH MATERIALS FOR CONTROLLED RELEASE OF ANTIVIRALS, METHOD AND USE” (priority 2020, published 2023)

System: Coronavirus (MHV-3 Strain)
Assay type: cell-based, Coronavirus MHV-3 Strain genus Betacoronavirus
Conditions: concentration of 5%

## N=C(NCCCCCCNC(=N)NC(=N)Nc1ccc(Cl)cc1)NC(=N)Nc1ccc(Cl)cc1 [5% Chlorhexidine, 1,1′-hexamethylene-bis(5-(p-chlorophenyl)-biguanide)]
  time after which activity was lost: 10 min
